Experimental data as given in patent publication US20230085307A1, “PYRIDAZINONE COMPOUND AND HERBICIDE” (NISSAN CHEMICAL CORPORATION, priority 2019, published 2023).

Experiments:
chickweed [1] = assay: Test Example 4: herbicidal effect by soil treatment (Table 19, symbol P); assay type: in vivo, common chickweed (Stellaria media); details: AAH 320 g/ha
Method in brief: (§1)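 Scoring uses the grading scale of an earlier test, three weeks post-application. Treatment consists of spraying a diluted emulsion formulation across the surface of sterilized diluvial soil in which seeds are buried near 1.5 cm deep; boxes are kept in a greenhouse between 25° C. and 30° C.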

windgrass [2] = assay: Test Example 4: herbicidal effect by soil treatment (Table 19, symbol L); assay type: in vivo, windgrass (Apera spica-venti); details: AAH 320 g/ha
Method in brief: as §1

green foxtail [3] = assay: Test Example 5: herbicidal effect by foliage application, plastic box (Table 20, symbol G); assay type: in vivo, green foxtail (Setaria viridis); details: foliage application, AAH 320 g/ha, three weeks after application
Method in brief: (§2)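 Post-emergence foliar test in sterilized diluvial soil. Compound applied as water-diluted emulsion at a predetermined rate to 14-day-old plants; evaluation at three weeks.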

Italian ryegrass [4] = assay: Test Example 5: herbicidal effect by foliage application, plastic box (Table 20, symbol K); assay type: in vivo, Italian ryegrass (Lolium multiflorum); details: foliage application, AAH 320 g/ha, three weeks after application
Method in brief: as §2

persian speedwell [5] = assay: Test Example 4: herbicidal effect by soil treatment (Table 19, symbol R); assay type: in vivo, Persian speedwell (Veronica persica); details: AAH 320 g/ha
Method in brief: as §1

wild oat [6] = assay: Test Example 5: herbicidal effect by foliage application, plastic box (Table 20, symbol I); assay type: in vivo, wild oat (Avena fatua); details: foliage application, AAH 320 g/ha, three weeks after application
Method in brief: as §2

velvetleaf [7] = assay: Test Example 4: herbicidal effect by soil treatment (Table 19, symbol M); assay type: in vivo, velvetleaf (Abutilon theophrasti); details: AAH 320 g/ha
Method in brief: as §1

redroot pigweed [8] = assay: Test Example 4: herbicidal effect by soil treatment (Table 19, symbol N); assay type: in vivo, redroot pigweed (Amaranthus retroflexus); details: AAH 320 g/ha
Method in brief: as §1

blackgrass = assay: Test Example 5: herbicidal effect by foliage application, plastic box (Table 20, symbol J); assay type: in vivo, blackgrass (Alopecurus myosuroides); details: foliage application, AAH 320 g/ha, three weeks after application
Method in brief: as §2

southern crabgrass [9] = assay: Test Example 4: herbicidal effect by soil treatment (Table 19, symbol F); assay type: in vivo, southern crabgrass (Digitaria ciliaris); details: AAH 320 g/ha
Method in brief: as §1

green foxtail [10] = assay: Test Example 4: herbicidal effect by soil treatment (Table 19, symbol G); assay type: in vivo, green foxtail (Setaria viridis); details: AAH 320 g/ha
Method in brief: as §1

false cleavers = assay: Test Example 5: herbicidal effect by foliage application, plastic box (Table 20, symbol Q); assay type: in vivo, false cleavers (Galium spurium); details: foliage application, AAH 320 g/ha, three weeks after application
Description: [Test Example 5] Herbicidal Effect Test by Foliage Application
Sterilized diluvial soil was placed in a plastic box having a length of 21 cm, a width of 13 cm, and a depth of 7 cm. The seeds of each of southern crabgrass, green foxtail, barnyard grass, wild oat, blackgrass, Italian ryegrass, windgrass, velvetleaf, redroot pigweed, lambsquarters, chickweed, false cleavers, persian speedwell, corn, soybean, rice, wheat, beet, and rapeseed were sowed in a spot-like manner and covered with the soil having a thickness of about 1.5 cm. Thereafter, the plants were grown in a greenhouse at 25° C. to 30° C. After 14-day growth of the plants, the emulsion agent of the compound of the present invention prepared according to Formulation Example 2 was diluted with water so as to achieve a predetermined herbicide amount, and the diluted emulsion agent was uniformly applied to a foliage part with a small-sized spray. Three weeks after the herbicide application, the effect of the herbicide on each plant was evaluated according to the criteria of Test Example 1.

windgrass [11] = assay: Test Example 5: herbicidal effect by foliage application, plastic box (Table 20, symbol L); assay type: in vivo, windgrass (Apera spica-venti); details: foliage application, AAH 320 g/ha, three weeks after application
Method in brief: as §2

barnyard grass [12] = assay: Test Example 3: herbicidal effect by foliage application, Wagner pot (Table 18, symbol H); assay type: in vivo, barnyard grass (Echinochloa crus-galli); details: 320 g/ha
Method in brief: (§3)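 Plants were sown in alluvial soil held under 0.1–0.5 cm standing water and grown 14 days in a greenhouse at 25–30 °C. An emulsifiable formulation, water-diluted to the set dose, was then sprayed onto the foliage, and effects were scored three weeks later using previously defined criteria.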

southern crabgrass [13] = assay: Test Example 5: herbicidal effect by foliage application, plastic box (Table 20, symbol F); assay type: in vivo, southern crabgrass (Digitaria ciliaris); details: foliage application, AAH 320 g/ha, three weeks after application
Method in brief: as §2

Chinese sprangletop = assay: Test Example 3: herbicidal effect by foliage application, Wagner pot (Table 18, symbol D); assay type: in vivo, chinese sprangletop (Leptochloa chinensis); details: 320 g/ha
Method in brief: as §3

chickweed [14] = assay: Test Example 5: herbicidal effect by foliage application, plastic box (Table 20, symbol P); assay type: in vivo, common chickweed (Stellaria media); details: foliage application, AAH 320 g/ha, three weeks after application
Method in brief: as §2

barnyard grass [15] = assay: Test Example 5: herbicidal effect by foliage application, plastic box (Table 20, symbol H); assay type: in vivo, barnyard grass (Echinochloa crus-galli); details: foliage application, AAH 320 g/ha, three weeks after application
Method in brief: as §2

lambsquarters [16] = assay: Test Example 4: herbicidal effect by soil treatment (Table 19, symbol O); assay type: in vivo, lambsquarters (Chenopodium album); details: AAH 320 g/ha
Method in brief: as §1

Italian ryegrass [17] = assay: Test Example 4: herbicidal effect by soil treatment (Table 19, symbol K); assay type: in vivo, Italian ryegrass (Lolium multiflorum); details: AAH 320 g/ha
Method in brief: as §1

persian speedwell [18] = assay: Test Example 5: herbicidal effect by foliage application, plastic box (Table 20, symbol R); assay type: in vivo, Persian speedwell (Veronica persica); details: foliage application, AAH 320 g/ha, three weeks after application
Method in brief: as §2

velvetleaf [19] = assay: Test Example 5: herbicidal effect by foliage application, plastic box (Table 20, symbol M); assay type: in vivo, velvetleaf (Abutilon theophrasti); details: foliage application, AAH 320 g/ha, three weeks after application
Method in brief: as §2

rice flat sedge = assay: Test Example 3: herbicidal effect by foliage application, Wagner pot (Table 18, symbol E); assay type: in vivo, rice flat sedge (Cyperus iria); details: 320 g/ha
Method in brief: as §3

redroot pigweed [20] = assay: Test Example 5: herbicidal effect by foliage application, plastic box (Table 20, symbol N); assay type: in vivo, redroot pigweed (Amaranthus retroflexus); details: foliage application, AAH 320 g/ha, three weeks after application
Method in brief: as §2

barnyard grass [21] = assay: Test Example 4: herbicidal effect by soil treatment (Table 19, symbol H); assay type: in vivo, barnyard grass (Echinochloa crus-galli); details: AAH 320 g/ha
Method in brief: as §1

lambsquarters [22] = assay: Test Example 5: herbicidal effect by foliage application, plastic box (Table 20, symbol O); assay type: in vivo, lambsquarters (Chenopodium album); details: foliage application, AAH 320 g/ha, three weeks after application
Method in brief: as §2

wild oat [23] = assay: Test Example 4: herbicidal effect by soil treatment (Table 19, symbol I); assay type: in vivo, wild oat (Avena fatua); details: AAH 320 g/ha
Method in brief: as §1

## CCCC(=O)Oc1c(OC)nn(C)c(=O)c1-c1c(-c2cc(F)c(F)c(F)c2)sc2ccccc12 [1-187]
Chickweed [1]
  P: chickweed, herbicidal effect rating: 5 (Herbicidal rate of 90% or more (almost completely withered))
Windgrass [2]
  L: windgrass, herbicidal effect rating: 0 (Herbicidal rate of 5% or less (almost no effect))
Green foxtail [3]
  G: green foxtail, herbicidal effect: 0 (Herbicidal rate of 5% or less (almost no effect))
Italian ryegrass [4]
  K: Italian ryegrass, herbicidal effect: 0 (Herbicidal rate of 5% or less (almost no effect))
Persian speedwell [5]
  R: persian speedwell, herbicidal effect rating: 4 (Herbicidal rate of 70% or more and less than 90%)
Wild oat [6]
  I: wild oat, herbicidal effect: 0 (Herbicidal rate of 5% or less (almost no effect))
Velvetleaf [7]
  M: velvetleaf, herbicidal effect rating: 0 (Herbicidal rate of 5% or less (almost no effect))
Redroot pigweed [8]
  N: redroot pigweed, herbicidal effect rating: 0 (Herbicidal rate of 5% or less (almost no effect))
blackgrass
  J: blackgrass, herbicidal effect: 0 (Herbicidal rate of 5% or less (almost no effect))
Southern crabgrass [9]
  F: southern crabgrass, herbicidal effect rating: 0 (Herbicidal rate of 5% or less (almost no effect))
Green foxtail [10]
  G: green foxtail, herbicidal effect rating: 0 (Herbicidal rate of 5% or less (almost no effect))
False cleavers
  Q: false cleavers, herbicidal effect: 0 (Herbicidal rate of 5% or less (almost no effect))
Windgrass [11]
  L: windgrass, herbicidal effect: 0 (Herbicidal rate of 5% or less (almost no effect))
Barnyard grass [12]
  herbicidal effect on H (barnyard grass), rating 0-5: 0 (Herbicidal rate of 5% or less (almost no effect))
Southern crabgrass [13]
  F: southern crabgrass, herbicidal effect: 0 (Herbicidal rate of 5% or less (almost no effect))
Chinese sprangletop
  herbicidal effect on D (Chinese sprangletop), rating 0-5: 0 (Herbicidal rate of 5% or less (almost no effect))
Chickweed [14]
  P: chickweed, herbicidal effect: 3 (Herbicidal rate of 40% or more and less than 70%)
Barnyard grass [15]
  H: barnyard grass, herbicidal effect: 0 (Herbicidal rate of 5% or less (almost no effect))
Lambsquarters [16]
  O: lambsquarters, herbicidal effect rating: 4 (Herbicidal rate of 70% or more and less than 90%)
Italian ryegrass [17]
  K: Italian ryegrass, herbicidal effect rating: 0 (Herbicidal rate of 5% or less (almost no effect))
Persian speedwell [18]
  R: persian speedwell, herbicidal effect: 5 (Herbicidal rate of 90% or more (almost completely withered))
Velvetleaf [19]
  M: velvetleaf, herbicidal effect: 4 (Herbicidal rate of 70% or more and less than 90%)
Rice flat sedge
  herbicidal effect on E (rice flat sedge), rating 0-5: 3 (Herbicidal rate of 40% or more and less than 70%)
Redroot pigweed [20]
  N: redroot pigweed, herbicidal effect: 4 (Herbicidal rate of 70% or more and less than 90%)
Barnyard grass [21]
  H: barnyard grass, herbicidal effect rating: 0 (Herbicidal rate of 5% or less (almost no effect))
Lambsquarters [22]
  O: lambsquarters, herbicidal effect: 5 (Herbicidal rate of 90% or more (almost completely withered))
Wild oat [23]
  I: wild oat, herbicidal effect rating: 0 (Herbicidal rate of 5% or less (almost no effect))
